In ChEMBL document CHEMBL1201862, “PubChem BioAssay data set” (2004):
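The compound was tested at five concentrations on cells cultured in 96-well plates, with a 48-hour exposure period. GI50 = concentration required for 50% inhibition of growth.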 Calls of active or inactive are those of the source. Cut-off read from the data, not from the text of the source: active = GI50 up to about 1.1 µM and inactive = higher.

Experiments:
Assay in all cases: DTP human tumour cell line panel, 48 h
786-0 = system: 786-0
A498 = system: A498
A549 = system: A549
HOP-92 = system: HOP-92
HT-29 = system: HT-29
IGROV-1 = system: IGROV-1
KM-20L2 = system: KM-20L2
Malme-3M = system: Malme-3M
NCI-H226 = system: NCI-H226
NCI-H23 = system: NCI-H23
NCI-H522 = system: NCI-H522
SF-295 = system: SF-295
SK-MEL-28 = system: SK-MEL-28
SK-MEL-5 = system: SK-MEL-5
SN12C = system: SN12C
SW-620 = system: SW-620
U-251 = system: U-251
OVCAR-5 = system: OVCAR-5

Structure (SMILES) | GI50 (786-0) | GI50 (A498) | GI50 (A549) | GI50 (HOP-92) | GI50 (HT-29) | GI50 (IGROV-1) | GI50 (KM-20L2) | GI50 (Malme-3M) | GI50 (NCI-H226) | GI50 (NCI-H23) | GI50 (NCI-H522) | GI50 (SF-295) | GI50 (SK-MEL-28) | GI50 (SK-MEL-5) | GI50 (SN12C) | GI50 (SW-620) | GI50 (U-251) | GI50 (OVCAR-5)
COc1cc2c(c(OC)c1OC)-c1ccc(SC)c(=O)cc1C(CC(=O)Oc1cccc(C#N)c1)C2 (stereo unspecified) | 0.475 µM (active) | 0.015 µM (active) | 0.516 µM (active) | 2.31 µM (inactive) | 0.276 µM (active) | 2.06 µM (inactive) | 0.208 µM (active) | 0.175 µM (active) | 0.222 µM (active) | 0.454 µM (active) | 0.187 µM (active) | 0.266 µM (active) | 0.724 µM (active) | 0.313 µM (active) | 0.48 µM (active) | 0.327 µM (active) | 0.354 µM (active) | 
Cc1c(/C=N/NC(=O)c2ccccc2)c(=O)n(-c2ccccc2)n1C | > 100 µM (inactive) | > 100 µM (inactive) | > 100 µM (inactive) | > 100 µM (inactive) | > 100 µM (inactive) | > 100 µM (inactive) | > 100 µM (inactive) | > 100 µM (inactive) | > 100 µM (inactive) | > 100 µM (inactive) | > 100 µM (inactive) | > 100 µM (inactive) | > 100 µM (inactive) |  | > 100 µM (inactive) | > 100 µM (inactive) | > 100 µM (inactive) | 
CCc1cc(Cc2ccc(C)c(NC(=O)C(=O)C3C(=O)NC(=O)NC3=O)c2CC)cc(C)c1NC(=O)C(=O)C1C(=O)NC(=O)NC1=O | > 100 µM (inactive) | > 100 µM (inactive) | > 100 µM (inactive) |  |  | > 100 µM (inactive) | > 100 µM (inactive) | > 100 µM (inactive) |  | > 100 µM (inactive) | > 100 µM (inactive) |  | > 100 µM (inactive) | > 100 µM (inactive) |  | > 100 µM (inactive) | > 100 µM (inactive) | > 100 µM (inactive)
O=C1OC(O)C(Oc2c(Cl)cccc2Cl)=C1Cl (stereo unspecified) | 17.1 µM (inactive) | 22.2 µM (inactive) | 17.2 µM (inactive) | 18 µM (inactive) | 18.4 µM (inactive) | 17.2 µM (inactive) | 17.8 µM (inactive) | 26.5 µM (inactive) | 18.4 µM (inactive) | 17.7 µM (inactive) | 12.5 µM (inactive) | 17.5 µM (inactive) | 20.2 µM (inactive) | 14.2 µM (inactive) | 17 µM (inactive) | 15.1 µM (inactive) | 13.8 µM (inactive) | 19.4 µM (inactive)
CCOC(=O)CNC1C(NC(C)=O)C(OC)OC2COC(c3ccccc3)OC21 (stereo unspecified) | > 100 µM (inactive) | > 100 µM (inactive) | > 100 µM (inactive) | > 100 µM (inactive) | > 100 µM (inactive) | > 100 µM (inactive) | > 100 µM (inactive) | > 100 µM (inactive) | > 100 µM (inactive) | > 100 µM (inactive) | > 100 µM (inactive) | > 100 µM (inactive) | > 100 µM (inactive) | > 100 µM (inactive) | > 100 µM (inactive) | > 100 µM (inactive) | > 100 µM (inactive) | > 100 µM (inactive)
CC1=CC(=O)NP(=O)(C23CC4CC(CC(C4)C2)C3)N1 (stereo unspecified) | > 100 µM (inactive) | > 100 µM (inactive) |  | > 100 µM (inactive) | > 100 µM (inactive) | > 100 µM (inactive) | > 100 µM (inactive) | > 100 µM (inactive) | > 100 µM (inactive) | > 100 µM (inactive) | > 100 µM (inactive) | > 100 µM (inactive) | > 100 µM (inactive) | > 100 µM (inactive) | > 100 µM (inactive) | > 100 µM (inactive) | > 100 µM (inactive) | > 100 µM (inactive)
COc1cc(Br)c(CC2(C#N)c3ccccc3C3C(N2C(=O)c2ccccc2)C3(Cl)Cl)cc1OC (stereo unspecified) | > 65.5 µM (inactive) |  | > 65.5 µM (inactive) | > 65.5 µM (inactive) | > 65.5 µM (inactive) | > 65.5 µM (inactive) | > 65.5 µM (inactive) | > 65.5 µM (inactive) | > 65.5 µM (inactive) | > 65.5 µM (inactive) | 3.52 µM (inactive) |  | > 65.5 µM (inactive) | 2.94 µM (inactive) | > 65.5 µM (inactive) | > 65.5 µM (inactive) | 39.4 µM (inactive) | > 65.5 µM (inactive)
CCOC(=O)/C(C#N)=C/c1[nH]c(C(=O)OCc2ccccc2)c(C)c1C | > 100 µM (inactive) |  | > 100 µM (inactive) | 78.9 µM (inactive) | > 100 µM (inactive) | > 100 µM (inactive) | > 100 µM (inactive) | > 100 µM (inactive) |  | > 100 µM (inactive) | > 100 µM (inactive) | > 100 µM (inactive) | > 100 µM (inactive) | 30.3 µM (inactive) | > 100 µM (inactive) | > 100 µM (inactive) | > 100 µM (inactive) | > 100 µM (inactive)
